Experimental data published in patent publication US11479539B2, “Small molecule modulators of the BTB domain of Keap1” (MedImmune Limited, priority 2017, dated 2022).

Target: Keap1 (Homo sapiens (Human), UniProt Q14145)
Assay: HEK293 ARE luciferase assay
Assay type: cell-based
Details: HEK-293 ARE firefly luciferase transiently transfected cells; 18 h incubation; mean of 1 to 20 individual measurements
From the text: The purpose of this assay is to identify small molecule inhibitors of Keap1, preventing Keap1 binding to Nrf2, and thus activating the Nrf2 signalling pathway in HEK-293 ARE firefly luciferase transiently transfected cells. HEK-293 cells express wild-type Keap1 protein and therefore have low constitutive levels of Nrf2 protein and Nrf2-dependent transcription. […] When Keap1 is inhibited, Nrf2 signalling is activated, and there is an increase in luciferase expression and light emission.
Cryopreserved HEK ARE luciferase cells were rapidly thawed in a 37° C. water bath and resuspended in assay culture medium (DMEM, 10% FCS, 2 mM L-glutamine). The cell suspension was pelleted by centrifugation ([…]; 300 g) using a Heraeus benchtop centrifuge. Supernatant was removed and the pellet was gently resuspended in 5 mL culture medium per vial. Cell viability and cell number was measured using an Invitrogen Countess automated cell counter (typical viability 80%), and cells were diluted to a density of 5.0×10^5 cells/mL.
Cells were then plated out into white 384-well plates (Greiner 781080) using a Multidrop Combi, 20 μL/well, to give 10,000 cells/well. As appropriate, test compounds had been added to wells prior to dispensing cells using an Echo 555 acoustic dispenser (Labcyte). Plates were left at room temperature for ˜10 min to promote even cell settling across the plate before incubation for 18 h at 37° C., 95% humidity and 5% CO2.
After 18 h incubation, plates were removed from the incubator and allowed to cool to room temperature for 30 min, before 10 μL per well SteadyGlo reagent detection reagent was added (as per manufacturer's instructions, 10 min before required 10 mL room temperature buffer was added to one vial of lyophilised substrate and inverted several times to fully dissolve). Plates were then incubated in the dark for 30 min before reading on an Envision plate reader.
Compounds were acoustically dispensed using a Labcyte Echo, using a 10 pt dose curve with a top concentration of 100 μM. Assay wells were backfilled with DMSO to a total of 60 nL to maintain 0.3% (v/v) DMSO through the assay.
The Stimulator signal was defined using 30 μM tert-butyl hydroquinone (tBHQ) and the Neutral signal by DMSO vehicle control. All calculations were performed using GeneData.
In IBIS Column Calculations, Assay Type was set to ‘Stimulator’, and the Activity Threshold was set to 50.
The mean values were calculated from anywhere from 1 to 20 individual measurements.

Keap1, sequence (Q14145 whole entry): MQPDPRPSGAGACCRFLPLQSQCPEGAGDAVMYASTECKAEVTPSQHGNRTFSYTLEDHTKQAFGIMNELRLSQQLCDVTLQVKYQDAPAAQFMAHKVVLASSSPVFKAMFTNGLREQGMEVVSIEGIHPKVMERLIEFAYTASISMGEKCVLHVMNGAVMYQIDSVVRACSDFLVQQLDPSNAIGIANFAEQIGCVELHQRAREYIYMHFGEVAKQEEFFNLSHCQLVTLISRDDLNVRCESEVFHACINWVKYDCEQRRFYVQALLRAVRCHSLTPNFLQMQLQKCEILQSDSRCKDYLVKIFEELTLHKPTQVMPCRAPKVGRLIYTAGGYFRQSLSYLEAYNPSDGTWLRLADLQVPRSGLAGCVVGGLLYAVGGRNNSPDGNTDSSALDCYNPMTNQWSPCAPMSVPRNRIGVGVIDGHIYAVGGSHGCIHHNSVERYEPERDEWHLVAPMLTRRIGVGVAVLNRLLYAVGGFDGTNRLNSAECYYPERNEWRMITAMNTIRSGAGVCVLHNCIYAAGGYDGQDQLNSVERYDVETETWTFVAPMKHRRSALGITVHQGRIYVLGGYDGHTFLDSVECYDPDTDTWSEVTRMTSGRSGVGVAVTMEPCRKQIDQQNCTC

SMILES	EC50 [nM]
COC1(c2ncc(Cl)cc2F)C=C(C#N)C(=O)C2(CC2)C1 (single isomer, unassigned) [Compound 61, 7-(5-chloro-3-fluoropyridin-2-yl)-7-methoxy-4-oxospiro[2.5]oct-5-ene-5-carbonitrile]	79
COC1(c2ncc(F)cc2OC(F)F)C=C(C#N)C(=O)C2(CC2)C1 (single isomer, unassigned) [Compound 62, 7-[3-(difluorometh-oxy)-5-fluoropyridin-2-yl]-7-methoxy-4-oxospiro[2.5]oct-5-ene-5-carbonitrile]	15
COC1(c2ncc(F)cc2C(F)F)C=C(C#N)C(=O)C2(CC2)C1 (single isomer, unassigned) [Compound 63, 7-[3-(difluoromethyl)-5-fluoropyridin-2-yl]-7-methoxy-4-oxospiro[2.5]oct-5-ene-5-carbonitrile]	18
COC1(c2ncccc2C(F)(F)F)C=C(C#N)C(=O)C2(CCCC2)C1 (single isomer, unassigned) [Compound 66, 9-methoxy-6-oxo-9-[3-(trifluoromethyl)pyridin-2-yl]spiro[4.5]dec-7-ene-7-carbonitrile]	126
COC1(c2ccc(F)cn2)C=C(C#N)C(=O)C2(CCCC2)C1 (single isomer, unassigned) [Compound 67, 9-(5-fluoropyridin-2-yl)-9-methoxy-6-oxospiro[4.5]dec-7-ene-7-carbonitrile]	239
COC1(c2ncc(F)cc2C)C=C(C#N)C(=O)C2(CCCC2)C1 (single isomer, unassigned) [Compound 68, 9-(5-fluoro-3-methylpyridin-2-yl)-9-methoxy-6-oxospiro[4.5]dec-7-ene-7-carbonitrile]	70
COC1(c2ncc(F)cc2-c2cnn(C)c2)C=C(C#N)C(=O)C(C)(C)C1 (single isomer, unassigned) [Compound 69, 3-[5-fluoro-3-(1-methyl-1H-pyrazol-4-yl)pyridin-2-yl]-3-methoxy-5,5-dimethyl-6-oxocyclohex-1-ene-1-carbonitrile]	2
COC1(c2ncc(F)cc2-c2ccc(F)cc2)C=C(C#N)C(=O)C(C)(C)C1 (single isomer, unassigned) [Compound 70, 3-[5-fluoro-3-(4-fluorophenyl)pyridin-2-yl]-3-methoxy-5,5-dimethyl-6-oxocyclohex-1-ene-1-carbonitrile]	15
COC1(c2ncc(F)cc2-c2cnn(C)c2C)C=C(C#N)C(=O)C(C)(C)C1 (single isomer, unassigned) [Compound 71, 3-[3-(1,5-dimethyl-1H-pyrazol-4-yl)-5-fluoropyridin-2-yl]-3-methoxy-5,5-dimethyl-6-oxocyclohex-1-ene-1-carbonitrile]	9
COC1(c2ncc(F)cc2-c2cnn(C3CC3)c2)C=C(C#N)C(=O)C(C)(C)C1 (single isomer, unassigned) [Compound 72, 3-[3-(1-cyclopropyl-1H-pyrazol-4-yl)-5-fluoropyridin-2-yl]-3-methoxy-5,5-dimethyl-6-oxocyclohex-1-ene-1-carbonitrile]	6
COC1(c2ncc(F)cc2-c2cnc(C)s2)C=C(C#N)C(=O)C(C)(C)C1 (single isomer, unassigned) [Compound 73, 3-[5-fluoro-3-(2-methyl-1,3-thiazol-5-yl)pyridin-2-yl]-3-methoxy-5,5-dimethyl-6-oxocyclohex-1-ene-1-carbonitrile]	7
COC1(c2ncc(F)cc2-c2cccn(C)c2=O)C=C(C#N)C(=O)C(C)(C)C1 (single isomer, unassigned) [Compound 75, 3-[5-fluoro-3-(1-methyl-2-oxo-3-pyridyl)-2-pyridyl]-3-methoxy-5,5-dimethyl-6-oxo-cyclohexene-1-carbonitrile]	36
COC1(c2ncc(F)cc2-c2ccnc(C)c2)C=C(C#N)C(=O)C(C)(C)C1 (single isomer, unassigned) [Compound 76, 3-[5-fluoro-3-(2-methyl-4-pyridyl)-2-pyridyl]-3-methoxy-5,5-dimethyl-6-oxo-cyclohexene-1-carbonitrile]	3
COC1(c2ncc(F)cc2-c2cc(C)nc(C)c2)C=C(C#N)C(=O)C(C)(C)C1 (single isomer, unassigned) [Compound 77, 3-[3-(2,6-dimethyl-4-pyridyl)-5-fluoro-2-pyridyl]-3-methoxy-5,5-dimethyl-6-oxo-cyclohexene-1-carbonitrile]	4
COC1(c2ncc(F)cc2-c2cn(C)nc2C)C=C(C#N)C(=O)C(C)(C)C1 (single isomer, unassigned) [Compound 78, 3-[3-(1,3-dimethylpyrazol-4-yl)-5-fluoro-2-pyridyl]-3-methoxy-5,5-dimethyl-6-oxo-cyclohexene-1-carbonitrile]	2
COC1(c2ncc(F)cc2-c2cccnc2C)C=C(C#N)C(=O)C(C)(C)C1 (single isomer, unassigned) [Compound 79, 3-[5-fluoro-3-(2-methyl-3-pyridyl)-2-pyridyl]-3-methoxy-5,5-dimethyl-6-oxo-cyclohexene-1-carbonitrile]	74
COC1(c2ncc(F)cc2-c2cnn(-c3ccccc3)c2)C=C(C#N)C(=O)C(C)(C)C1 (single isomer, unassigned) [Compound 81, 3-[5-fluoro-3-(1-phenylpyrazol-4-yl)-2-pyridyl]-3-methoxy-5,5-dimethyl-6-oxo-cyclohexene-1-carbonitrile]	2
COC1(c2ncc(F)cc2-c2ccnc(C)c2C)C=C(C#N)C(=O)C(C)(C)C1 (single isomer, unassigned) [Compound 82, 3-[3-(2,3-dimethyl-4-pyridyl)-5-fluoro-2-pyridyl]-3-methoxy-5,5-dimethyl-6-oxo-cyclohexene-1-carbonitrile]	52
COC1(c2ncc(F)cc2-c2cnn(C3CCCC3)c2)C=C(C#N)C(=O)C(C)(C)C1 (single isomer, unassigned) [Compound 83, 3-[3-(1-cyclopentylpyrazol-4-yl)-5-fluoro-2-pyridyl]-3-methoxy-5,5-dimethyl-6-oxo-cyclohexene-1-carbonitrile]	70
COC1(c2ncc(F)cc2-c2cncc(F)c2)C=C(C#N)C(=O)C(C)(C)C1 (single isomer, unassigned) [Compound 84, 3-[5-fluoro-3-(5-fluoro-3-pyridyl)-2-pyridyl]-3-methoxy-5,5-dimethyl-6-oxo-cyclohexene-1-carbonitrile]	6
COC1(c2ncc(F)cc2-c2cncc(C#N)c2)C=C(C#N)C(=O)C(C)(C)C1 (single isomer, unassigned) [Compound 85, 2′-(3-cyano-1-methoxy-5,5-dimethyl-4-oxocyclohex-2-enyl)-5′-fluoro-3,3′-bipyridine-5-carbonitrile]	6
CCn1cc(-c2cc(F)cnc2C2(OC)C=C(C#N)C(=O)C(C)(C)C2)cn1 (single isomer, unassigned) [Compound 86, 3-[3-(1-ethylpyrazol-4-yl)-5-fluoro-2-pyridyl]-3-methoxy-5,5-dimethyl-6-oxo-cyclohexene-1-carbonitrile]	9
COC1(c2ncc(F)cc2-c2cncc(C(F)(F)F)c2)C=C(C#N)C(=O)C(C)(C)C1 (single isomer, unassigned) [Compound 87, 3-[5-fluoro-3-[5-(trifluoromethyl)-3-pyridyl]-2-pyridyl]-3-methoxy-5,5-dimethyl-6-oxo-cyclohexene-1-carbonitrile]	17
COC1(c2ncc(F)cc2-c2cncc(Cl)c2)C=C(C#N)C(=O)C(C)(C)C1 (single isomer, unassigned) [Compound 88, 3-[3-(5-chloro-3-pyridyl)-5-fluoro-2-pyridyl]-3-methoxy-5,5-dimethyl-6-oxo-cyclohexene-1-carbonitrile]	9
COC1(c2ncc(F)cc2-c2cnc(C)nc2)C=C(C#N)C(=O)C(C)(C)C1 (single isomer, unassigned) [Compound 89, 3-[5-fluoro-3-(2-methylpyrimidin-5-yl)-2-pyridyl]-3-methoxy-5,5-dimethyl-6-oxo-cyclohexene-1-carbonitrile]	11
COC1(c2ncc(F)cc2-c2ccc(C(F)(F)F)nc2)C=C(C#N)C(=O)C(C)(C)C1 (single isomer, unassigned) [Compound 90, 3-[5-fluoro-3-[6-(trifluoromethyl)-3-pyridyl]-2-pyridyl]-3-methoxy-5,5-dimethyl-6-oxo-cyclohexene-1-carbonitrile]	11
COC1(c2ncc(F)cc2-c2c(C)nn(C)c2C)C=C(C#N)C(=O)C(C)(C)C1 (single isomer, unassigned) [Compound 92, 3-[5-fluoro-3-(1,3,5-trimethylpyrazol-4-yl)-2-pyridyl]-3-methoxy-5,5-dimethyl-6-oxo-cyclohexene-1-carbonitrile]	67
